Experimental findings from patent US20090281099A1, “SUBSTITUTED PYRAZINONE DERIVATIVES FOR USE AS A MEDICINE” (priority 2006, published 2009) are described below.

A value given as a limit tells only on which side of the number the result lay.

For one assay, the target named is T1, hα2A receptor (Homo sapiens, UniProt P08913).
T1 construct: expressed in transfected cells
T1 sequence (P08913 1-465): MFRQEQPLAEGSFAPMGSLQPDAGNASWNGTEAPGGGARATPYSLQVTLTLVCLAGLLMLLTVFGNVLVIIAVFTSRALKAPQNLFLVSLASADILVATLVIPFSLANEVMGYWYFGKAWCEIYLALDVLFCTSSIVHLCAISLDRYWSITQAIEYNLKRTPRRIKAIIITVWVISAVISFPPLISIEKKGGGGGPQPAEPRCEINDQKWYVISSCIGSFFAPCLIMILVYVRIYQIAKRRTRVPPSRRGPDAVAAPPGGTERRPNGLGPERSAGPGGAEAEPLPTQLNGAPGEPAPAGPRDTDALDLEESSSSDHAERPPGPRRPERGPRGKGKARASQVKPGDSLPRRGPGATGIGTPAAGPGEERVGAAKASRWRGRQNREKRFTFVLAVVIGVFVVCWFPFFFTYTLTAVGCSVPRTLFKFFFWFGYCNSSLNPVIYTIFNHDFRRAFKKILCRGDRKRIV
The experiment in a line: Radioligand binding experiment for hα2A receptor ([3H]-raulwolscine, CHO cell membranes). The note with it: [3H]raulwolscine 1 nM, membranes of CHO cells transfected with human α2A receptor; read-out: h-α2A pIC50 (converted).

In the next assay the target is T2, hα2C receptor (Homo sapiens, UniProt P18825).
T2 construct: expressed in transfected cells
T2 sequence (P18825 1-462): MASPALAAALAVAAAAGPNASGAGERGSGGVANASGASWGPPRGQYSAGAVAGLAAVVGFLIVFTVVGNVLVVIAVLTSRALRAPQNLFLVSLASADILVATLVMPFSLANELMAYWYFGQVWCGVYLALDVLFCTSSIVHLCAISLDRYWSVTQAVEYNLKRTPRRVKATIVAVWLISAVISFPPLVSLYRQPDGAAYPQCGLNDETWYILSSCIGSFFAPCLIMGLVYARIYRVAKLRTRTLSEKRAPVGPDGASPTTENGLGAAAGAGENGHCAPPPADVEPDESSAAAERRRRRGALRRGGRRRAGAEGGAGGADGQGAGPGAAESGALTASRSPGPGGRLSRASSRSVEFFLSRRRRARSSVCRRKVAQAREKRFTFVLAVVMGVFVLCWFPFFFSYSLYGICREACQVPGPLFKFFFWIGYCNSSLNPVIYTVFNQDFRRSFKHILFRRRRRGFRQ
The experiment in a line: Radioligand binding experiment for α2C-adrenoceptor ([3H]-raulwolscine, CHO cell membranes). The note with it: [3H]raulwolscine 1 nM, membranes of CHO cells transfected with human α2C receptor; read-out: h-α2C pIC50 (converted).

The next assay concerns the target T3, 5HT-Transporter (Homo sapiens, UniProt P31645).
T3 construct: Human platelet membranes (Oceanix Biosciences Corporation, Hanover, Md., USA) were thawed; tissue Oceanix Biosciences Corporation; host or cells: human platelet membranes
The experiment in a line: Binding experiment for the 5HT-transporter ([3H]paroxetine, human platelet membranes). The note with it: [3H]paroxetine 0.5 nM, read-out: h-5HTT pIC50 (converted).

T3 sequence (P31645 whole entry): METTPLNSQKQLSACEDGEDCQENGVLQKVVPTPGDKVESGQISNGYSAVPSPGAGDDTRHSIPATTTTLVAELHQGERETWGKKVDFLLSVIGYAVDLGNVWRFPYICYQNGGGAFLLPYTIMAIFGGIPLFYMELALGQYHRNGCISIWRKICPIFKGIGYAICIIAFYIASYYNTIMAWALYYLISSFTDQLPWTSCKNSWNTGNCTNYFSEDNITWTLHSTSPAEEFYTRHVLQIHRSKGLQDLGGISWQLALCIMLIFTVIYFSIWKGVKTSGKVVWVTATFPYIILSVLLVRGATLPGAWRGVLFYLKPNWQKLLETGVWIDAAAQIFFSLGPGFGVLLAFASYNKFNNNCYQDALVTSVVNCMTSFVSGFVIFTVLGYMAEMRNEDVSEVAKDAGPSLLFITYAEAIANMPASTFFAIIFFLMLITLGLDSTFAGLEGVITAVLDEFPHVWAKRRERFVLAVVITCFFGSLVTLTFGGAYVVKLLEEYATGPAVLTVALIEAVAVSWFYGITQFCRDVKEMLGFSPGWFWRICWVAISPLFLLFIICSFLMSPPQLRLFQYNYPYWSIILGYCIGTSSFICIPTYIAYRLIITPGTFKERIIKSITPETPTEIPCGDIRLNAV

Regarding `O=c1[nH]ccnc1N1CCN(CCOc2ccc(F)cc2)CC1` [Compound 13-1], the figures for the IC50 on hα2A receptor, at hα2C receptor and at 5HT-Transporter were 501 nM, 251 nM and > 10 µM, respectively.

Turning to `CCCn1ccnc(N2CCN(CCOc3ccc(F)cc3)CC2)c1=O` [Compound 13-2], the IC50 at hα2A receptor was 631 nM; at hα2C receptor, 398 nM; at 5HT-Transporter, > 10 µM.

For `O=c1c(N2CCN(CCOc3ccc(F)cc3)CC2)nccn1CC1CCCCC1` [Compound 13-3], the IC50 on hα2A receptor is 501 nM; at hα2C receptor, 251 nM; at 5HT-Transporter it was 7.94 µM.

Turning to `CC(C)(C)C(=O)Cn1ccnc(N2CCN(CCOc3ccc(F)cc3)CC2)c1=O` [Compound 13-4], the IC50 on hα2A receptor is 316 nM; at hα2C receptor, 200 nM; on 5HT-Transporter, > 10 µM.

On to `C=CCn1ccnc(N2CCN(CCOc3ccc(F)cc3)CC2)c1=O` [Compound 13-5], for which the IC50 on hα2A receptor is 501 nM; on hα2C receptor, 501 nM; at 5HT-Transporter it was > 10 µM.
